From patent publication US20220259593A1, “CONTROL OF MAMMALIAN GENE DOSAGE USING CRISPR” (The Regents of the University of California, priority 2019, published 2022)

How the values were obtained:
K562 CRISPRi cells [1] = assay: Perturb-seq pooled growth measurement (sgRNA counts, growth phenotype γ, relative activity); format: cell-based, human; settings: γ relative to perfectly matched sgRNA (_00) of the same gene, day 10
K562 CRISPRi cells [2] = assay: as above; format: cell-based, human; settings: for gamma_day5 / gamma_day10: pooled growth phenotype γ of the Perturb-seq sgRNA; for gamma_day5: day 5, K562 CRISPRi cells; for gamma_day10: day 10, K562 CRISPRi cells; for relative_activity_day5: γ relative to perfectly matched sgRNA (_00) of the same gene, day 5
Summary of the method: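 CRISPRi K562 cells from the Perturb-seq transduced pool; 500,000-cell samples taken days two, seven and twelve post-transduction. sgRNA amplicons from genomic DNA sequenced; growth phenotypes from normalized sgRNA abundances at days seven and twelve versus day two. Relative activity assigned from day seven (five days' growth).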

Substance	relative_activity_day10 (K562 CRISPRi cells [1])	gamma_day5 (K562 CRISPRi cells [2])	gamma_day10 (K562 CRISPRi cells [2])	relative_activity_day5 (K562 CRISPRi cells [2])
MTOR_ + _11322547.23-P1P2_05 (guide GGGCAGGGGGCTTGAAGCGG; listed as DNA, chemistry not fully specified)	0.6137	−0.4313	−0.3448	0.6275
MTOR_ + _11322547.23-P1P2_06 (guide GGGCAGGGGGGCTGAAGCGG; listed as DNA, chemistry not fully specified)	0.532	−0.3933	−0.2989	0.5723
MTOR_ + _11322547.23-P1P2_07 (guide GGGCAGGGGGTCTGAAGCGG; listed as DNA, chemistry not fully specified)	0.8541	−0.5893	−0.4799	0.8576
MTOR_ + _11322547.23-P1P2_10 (guide GGGCAGGGGGCCTGAAGCAG; listed as DNA, chemistry not fully specified)	0.4141	−0.3048	−0.2327	0.4435
POLR1D_ + _28196016.23-P1_00 (guide GGGAAGCAAGGACCGACCGA; listed as DNA, chemistry not fully specified)	1	−0.7594	−0.6213	1
POLR1D_ + _28196016.23-P1_01 (guide GGGAAGCCAGGACCGACCGA; listed as DNA, chemistry not fully specified)	0.8718	−0.6945	−0.5416	0.9145
POLR1D_ + _28196016.23-P1_03 (guide GGTAAGCAAGGACCGACCGA; listed as DNA, chemistry not fully specified)	1.1	−0.8471	−0.6833	1.116
POLR1D_ + _28196016.23-P1_07 (guide GGGAAGCAAGGAGCGACCGA; listed as DNA, chemistry not fully specified)	0.3911	−0.3019	−0.243	0.3976
POLR1D_ + _28196016.23-P1_08 (guide GGGAAGCAGGGACCGACCGA; listed as DNA, chemistry not fully specified)	1.017	−0.8088	−0.6317	1.065
POLR2H_ + _184081251.23-P1P2_00 (guide GGGGCCACGAGAGCAGCAGA; listed as DNA, chemistry not fully specified)	1	−1.149	−0.6391	1
POLR2H_ + _184081251.23-P1P2_07 (guide GGGGCCACGAGTGCAGCAGA; listed as DNA, chemistry not fully specified)	0.223	−0.1894	−0.1426	0.1648
POLR2H_ + _184081251.23-P1P2_08 (guide GGGGCCACGCGAGCAGCAGA; listed as DNA, chemistry not fully specified)	0.5225	−0.5208	−0.334	0.4532
POLR2H_ + _184081251.23-P1P2_11 (guide GGGGCCACGAGAGCAGCGGA; listed as DNA, chemistry not fully specified)	0.8554	−0.9966	−0.5467	0.8672
POLR2H_ + _184081251.23-P1P2_12 (guide GGGGCCACGAGAGCAGGAGA; listed as DNA, chemistry not fully specified)	0.3595	−0.3516	−0.2298	0.306
RAN_ + _131356438.23-P1P2_00 (guide GGCGGTCGCTGCGCTTAGGG; listed as DNA, chemistry not fully specified)	1	−0.1974	−0.1615	1
RAN_ + _131356438.23-P1P2_02 (guide GGCGGCCGCTGCGCTTAGGG; listed as DNA, chemistry not fully specified)	1.264	−0.2316	−0.2041	1.173
RAN_ + _131356438.23-P1P2_03 (guide GGGGGTCGCTGCGCTTAGGG; listed as DNA, chemistry not fully specified)	1.22	−0.2162	−0.197	1.095

Substance	relative_activity_day10 (K562 CRISPRi cells [1])	gamma_day5 (K562 CRISPRi cells [2])	gamma_day10 (K562 CRISPRi cells [2])	relative_activity_day5 (K562 CRISPRi cells [2])
RAN_ + _131356438.23-P1P2_04 (guide GGCGGTCGCGGCGCTTAGGG; listed as DNA, chemistry not fully specified)	0.5401	−0.0859	−0.08721	0.4352
RAN_ + _131356438.23-P1P2_12 (guide GGCGGTCGCTGCGCTTAGGT; listed as DNA, chemistry not fully specified)	0.2122	−0.04655	−0.03426	0.2358
RPL9_ + _39460483.23-P1P2_00 (guide GGATGTTTCTGTGCTCGTGG; listed as DNA, chemistry not fully specified)	1	−1.113	−0.6699	1
RPL9_ + _39460483.23-P1P2_01 (guide GGATGATTCTGTGCTCGTGG; listed as DNA, chemistry not fully specified)	0.7441	−0.8528	−0.4984	0.7661
RPL9_ + _39460483.23-P1P2_04 (guide GGATGTTTCAGTGCTCGTGG; listed as DNA, chemistry not fully specified)	0.4392	−0.4171	−0.2942	0.3747
RPL9_ + _39460483.23-P1P2_05 (guide GGATGTTTCGGTGCTCGTGG; listed as DNA, chemistry not fully specified)	0.5745	−0.6073	−0.3848	0.5456
RPL9_ + _39460483.23-P1P2_07 (guide GGATGTTTCTGCGCTCGTGG; listed as DNA, chemistry not fully specified)	0.3095	−0.2924	−0.2073	0.2627
RPS14_ + _149829238.23-P1P2_00 (guide GAGGCCCGGGCGCGACAATC; listed as DNA, chemistry not fully specified)	1	−0.7908	−0.4995	1
RPS14_ + _149829238.23-P1P2_01 (guide GAGACCCGGGCGCGACAATC; listed as DNA, chemistry not fully specified)	0.9624	−0.7548	−0.4807	0.9545
RPS14_ + _149829238.23-P1P2_02 (guide GAGGCCCTGGCGCGACAATC; listed as DNA, chemistry not fully specified)	0.7666	−0.5845	−0.3829	0.739
RPS14_ + _149829238.23-P1P2_04 (guide GAGGCCCGCGCGCGACAATC; listed as DNA, chemistry not fully specified)	0.3919	−0.3025	−0.1958	0.3825
RPS14_ + _149829238.23-P1P2_08 (guide GAGGCCCGGGCTCGACAATC; listed as DNA, chemistry not fully specified)	0.001223	0.02738	−0.0006109	−0.03462
RPS14_ + _149829238.23-P1P2_13 (guide GAGGCCCGGGCGCGACAGTC; listed as DNA, chemistry not fully specified)	0.3122	−0.2119	−0.1559	0.268
RPS15_ −_1438413.23-P1P2_00 (guide GACCAAAGCGATCTCTTCTG; listed as DNA, chemistry not fully specified)	1	−0.6212	−0.376	1
RPS15_ −_1438413.23-P1P2_01 (guide GACCAAACCGATCTCTTCTG; listed as DNA, chemistry not fully specified)	−0.003782	0.006616	0.001422	−0.01064
RPS15_ −_1438413.23-P1P2_02 (guide GACCAAGGCGATCTCTTCTG; listed as DNA, chemistry not fully specified)	0.8366	−0.4922	−0.3145	0.7923
